Assays:
[1] = system: IL-17/IL-23 and TNF signaling pathway-associated cytokine genes and chemokine genes; test: Transcription of IL-17/IL-23 and TNF signature genes in LPS-stimulated THP-1 cells (qPCR); assay type: cell-based, human; conditions: 2 h; RPM 5-20 μM
Protocol: (§1) Sample Collection and Preparation. THP-1 cells, a human leukemia monocyte-derived cell line, have been widely used as a model to study the modulation of the immune response and the function of monocytes and monocyte-derived macrophages. Here, lipopolysaccharide (LPS)-stimulated THP-1 cells were used as a model to study the cytokine storm in vitro (Chanput et al., 2014). THP-1 cells (purchased from American Type Culture Collection, Rockville, MD) were grown in RPMI 1640 culture medium (Gibco) supplemented with 10% fetal bovine serum (FBS) (Gibco, UK), 0.05 mM 2-mercaptoethanol, and 1% penicillin/streptomycin (Invitrogen) at 37° C. in 5% CO2 in a humidified incubator. Cultured cells were plated into culture plates in appropriate volumes with a cell density of 5×10^5 cells/ml. 2,4-D was purchased from Wuhan ChemFaces Biochemical Co., Ltd (Hubei, China) and tested for cytotoxicity in THP-1 cells overnight using a commercial MTT Cell Proliferation and Cytotoxicity Assay Kit (Beyotime, Shanghai, China). […]
Real-Time Quantitative PCR. Real-time quantitative PCR was performed in triplicate using the TB Green qPCR master mix (Takara Biomedical Technology Co., Ltd, Dalian, China) on an ABI 7500 Real-Time PCR System (Thermo, USA). […] The ΔΔCT method was used to quantify relative mRNA levels as described above in Example 1 (Applied Biosystems). Data are expressed as mean±SD. […]

[2] = system: IL-17/IL-23 and TNF signature cytokines and chemokines; test: Release of IL-17/IL-23 and TNF signature cytokines and chemokines into supernatant of LPS-stimulated THP-1 cells (ELISA); assay type: cell-based, human; conditions: 24 h
Protocol: as §1
ELISA. […] Culture supernatants were measured according to the manufacturer's instructions. A Varioskan LUX microplate reader (Thermo Fisher, USA) was used for the assay and 4-parameter logistic regression was used for data analysis. […] Data are expressed as mean±SD. […]

[3] = system: MSU-induced knee joint edema; test: MSU-induced knee joint edema in mice; assay type: in vivo, mouse; conditions: 20 h
Protocol: (§2) 2,4-D, isolated and purified from Chloranthus spicatus (purity≥98%), was purchased from BOC Science (Shirley, NY). Colchicine (CLC) (purity≥96%) and dexamethasone (DEX) (purity≥98%) were purchased from Sigma. Mice (six per group) were treated with 2,4-D (100 mg/kg or 20 mg/kg, i.p.), CLC (1 mg/kg or 0.2 mg/kg, i.p.), DEX (0.5 mg/kg or 0.1 mg/kg, i.p.), or vehicle (20% polyoxyethylenesorbitan monooleate (Tween 80) plus PBS) 30 min before intra-articular stimulus with MSU (100 μg/10 μL, i.a.). Six mice with intra-articular injection with PBS alone served as a negative control.
Preparation of monosodium urate crystal (MSU). MSU crystals were prepared as described previously (Ruiz-Miyazawa et al., 2017). Briefly, 800 mg of monosodium urate was dissolved in 155 ml of boiling milli-Q water containing 2N NaOH. After pH adjustment to 8.9, the solution was cooled gradually by stirring at room temperature and crystallized overnight at 4° C. Crystals were collected, and centrifuged at 3,000×g for 2 min at 4° C. The crystals were evaporated and sterilized by heating at 180° C. for 2 h and stored in a sterile environment until use. The load of endotoxin present in the MSU crystals was determined using a ToxinSensor^TM Single Test Kit (GenScript).
(§3) Induction of MSU-Induced Knee Joint Inflammation. Male ICR (CD-1) mice (35-45 g, 10-12 weeks) were purchased from VitalRiver Inc (Beijing, China) and were kept in an animal care facility under controlled temperature of 21±1° C., humidity, and on a light/dark cycle, with ad libitum access to water and standard laboratory chow diet. Animal care and handling procedures were approved by the Animal Ethics Committee of GZUCM (Guangzhou University of Chinese Medicine). All efforts were made to minimize animal suffering and to reduce the number of animals used. Joint inflammation was induced by the intra-articular (i.a.) administration of MSU (200 μg/20 μl) into the right and left knee joints of mice under inhaled 3% isoflurane anesthesia. Control animals received an injection (i.a.) of sterile PBS (20 μL).
Evaluation of Knee Joint Edema. Knee joint edema was determined with a caliper (Mitutoyo) before (zero time), and after the intra-articular injection with MSU at the times indicated. Knee joint edema was determined for each mouse by the difference between the time points indicated on figures and the zero time (Ruiz-Miyazawa et al, 2017). The edema value is represented as Amm/joint.
Statistical Analysis. Data were analyzed using GraphPad Prism statistical software (GraphPad Software, Inc., United States-500.288, version 5.0). Results are presented as means±SEM or SD of measurements made on 6 mice per group, with statistical significance determined by two-way ANOVA, comparing each group to the control (“Model”) group. For in vitro experiments, microassays were performed in quadruplicate. p<0.05 was considered significant (*p<0.05, **p<0.01, ***p<0.001).

[4] = system: MSU-induced leukocyte recruitment; test: MSU-induced leukocyte recruitment to the synovial cavity of knee joint; assay type: in vivo, mouse; conditions: 20 h; 2,4-D 100 mg/kg, CLC 1 mg/kg, DEX 0.5 mg/kg
Protocol: as §2, §3
Histopathological Analysis. Knee joint was collected 20 h after MSU injection, fixed with 10% paraformaldehyde in PBS, and then decalcified for 10 days with EDTA and embedded in paraffin for histological analysis. […] Results are expressed as leukocytes infiltrate (cell/field) counted at the inflammatory foci within synovial cavity as indicative of synovitis. […]
Statistical Analysis. Data were analyzed using GraphPad Prism statistical software (GraphPad Software, Inc., United States-500.288, version 5.0). Results are presented as means±SEM or SD of measurements made on 6 mice per group, with statistical significance determined by two-way ANOVA, comparing each group to the control (“Model”) group. […]

IL-1ß = test: MSU-induced IL-1ß in knee joint tissue (multiplex microassay); assay type: in vivo, mouse; conditions: 2,4-D 100 mg/kg, CLC 1 mg/kg, DEX 0.5 mg/kg
Protocol: (§4) Mice (six per group) were treated with 2,4-D (100 mg/kg or 20 mg/kg, i.p.), CLC (1 mg/kg or 0.2 mg/kg, i.p.), DEX (0.5 mg/kg or 0.1 mg/kg, i.p.), or vehicle (20% polyoxyethylenesorbitan monooleate (Tween 80) plus PBS) 30 min before intra-articular stimulus with MSU (100 μg/10 μL, i.a.). Six mice with intra-articular injection with PBS alone served as a negative control.
as §3
(§5) Cytokine Measurement. Mice were anesthetized and sacrificed. Knee joints were collected and frozen in liquid nitrogen. Samples were then homogenized in 500 μl of buffer containing protease inhibitors, centrifuged (3600 rpm, 4° C., 15 min) and supernatants were used to determine Th1/Th2/Th17 cytokine levels using a multiplex microassay (Qantibody® mouse TH17 Array 1 kit, Cat. No.: QAM-TH17-1; RayBiotech, Norcross, GA). Results were expressed as picograms (pg) of cytokine/mg of tissue.
(§6) Statistical Analysis. […] For in vitro experiments, microassays were performed in quadruplicate. p<0.05 was considered significant (*p<0.05, **p<0.01, ***p<0.001).

IL-6 = test: MSU-induced IL-6 in knee joint tissue (multiplex microassay); assay type: in vivo, mouse; conditions: 2,4-D 100 mg/kg, CLC 1 mg/kg, DEX 0.5 mg/kg
Protocol: as §4, §3, §5, §6

IL-10 = test: MSU-induced IL-10 in knee joint tissue (multiplex microassay); assay type: in vivo, mouse; conditions: 2,4-D 100 mg/kg, DEX 0.5 mg/kg
Protocol: as §4, §3, §5, §6

TNF-alpha = test: MSU-induced TNF-alpha in knee joint tissue (multiplex microassay); assay type: in vivo, mouse; conditions: 2,4-D 100 mg/kg, CLC 1 mg/kg, DEX 0.5 mg/kg
Protocol: as §4, §3, §5, §6

Structure (SMILES) | inhibition of transcription of Tnf, Il1ß, Ccl2 and Ccl3 [1] [fold] | inhibition at 20 µM ([2]; Homo sapiens, THP-1, 20 μM, read-out: inhibition of release of IL-1ß, IL-10, TNF-alpha, CCL2/MCP-1, CCL3/MIP-1alpha and CCL20) [%] | reduction of release of IL-10, CCL2/MCP-1, CCL3/MIP-1alpha and CCL20/MIP-3alpha ([2]; DEX) | reduction of MSU-induced knee joint edema ([3]; high dose i.p.: 2,4-D 100 mg/kg, CLC 1 mg/kg, DEX 0.5 mg/kg) [%] | reduction of MSU-induced knee joint edema ([3]; low dose i.p.: 2,4-D 20 mg/kg, DEX 0.1 mg/kg) [%] | reduction of MSU-induced leukocyte recruitment [4] [fold] | decrease of IL-1ß in knee joint tissue (IL-1ß) [fold] | decrease of IL-6 in knee joint tissue (IL-6) | decrease of IL-10 in knee joint tissue (IL-10) [fold] | decrease of TNF-alpha in knee joint tissue (TNF-alpha) [fold]
CO[C@H]1C[C@@H]2CC[C@@H](C)[C@@](O)(O2)C(=O)C(=O)N2CCCC[C@H]2C(=O)O[C@H]([C@H](C)C[C@@H]2CC[C@@H](O)[C@H](OC)C2)CC(=O)[C@H](C)/C=C(\C)[C@@H](O)[C@@H](OC)C(=O)[C@H](C)C[C@H](C)/C=C/C=C/C=C/1C [Rapamycin, rapamycin, reference compound] | ≤ 50 | < 50 | – | – | – | – | – | – | – | –
C[C@@H]1C[C@H]2[C@@H]3CCC4=CC(=O)C=C[C@]4(C)[C@@]3(F)[C@@H](O)C[C@]2(C)[C@@]1(O)C(=O)CO [DEX, dexamethasone] | – | – | 50-90% | 38.9 | 16.8 | 2.2 | 1.9 | no effect | 1.5 | 2.0
